In data set [1] the test system is MCF-7 breast carcinoma cell line. Briefly: Growth inhibition of tumor cell lines in vitro (MTT / cell counting). It is filed as cell-based, human. The following applies: Homo sapiens, MCF7, 72 h; MCF-7, 3 days.
Another data set deals with lung adenocarcinoma A549. Briefly: Growth inhibition of tumor cell lines in vitro (reference drug). Conditions: Homo sapiens; lung adenocarcinoma A549 (footnote c, printed in NCI-H460 column). The format is cell-based.
Data set [2] has as its system CEM acute lymphoblastic leukemia cell line. In words: Growth inhibition of tumor cell lines in vitro (MTT / cell counting). It is filed as cell-based. The following applies: Homo sapiens, 96 h, 4 days. In short, it runs like this:
(§1)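 Cells in DMEM/10% FBS were exposed to compounds at 10^−8 to 10^−4 M (ten-fold dilutions) for 3 days (SW 620, NCI-H460) or 4 days (CEM, L1210) at 37 °C. Growth was read by MTT absorbance at 570 nm and/or viable cell counting, and PG values were derived; quadruplicate points, at least two experiments.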

Data set [3] relates to L1210 murine lymphocytic leukemia cell line. Described as above. It is filed as cell-based. The following applies: Mus musculus, 96 h; L1210, 4 days. In short, it runs like this: as §1
The subject of data set [4] is SW 620 colon carcinoma cell line. Described as above. The format is cell-based. The following applies: Homo sapiens, 72 h; SW 620, 3 days. An outline of the steps:
as §1

The subject of data set [5] is HeLa cervical carcinoma cell line. The data set is described as above. It is filed as cell-based. Conditions: Homo sapiens.
A short description of data set [6]: Interaction with the stable radical DPPH (reducing ability). As to the method:
To a solution of DPPH in absolute ethanol the appropriate volume of the compounds (50 or 100 µM final concentrations) dissolved in DMSO was added. The absorbance was recorded at 517 nm after 20 and 60 min at room temperature. The experiments were repeated at least in triplicate and the standard deviation of absorbance was less than 10% of the mean. NDGA was used under the same experimental conditions as a reference compound.

Data set [7] concerns NCI-H460 lung carcinoma cell line. In words: Growth inhibition of tumor cell lines in vitro (MTT / cell counting). The format is cell-based, human. The following applies: Homo sapiens, 72 h; NCI-H460, 3 days. An outline of the steps:
as §1

Data set [8] in a line: Inhibition of linoleic acid peroxidation (AAPH-induced). The following applies: 5 × 10^−5 M. In short, it runs like this:
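Sodium linoleate (16 mM stock) in 0.05 M phosphate buffer pH 7.4 at 37 °C under air, peroxidation initiated by AAPH (40 mM stock) with test compound added. Conjugated diene formation followed at 234 nm; at least triplicate runs, Trolox as reference.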

For data set [9], the target named is T1, soybean lipoxygenase (LOX) (Glycine max, UniProt P08170).
T1 construct: purchased Sigma-Aldrich
T1 sequence (P08170 1-839): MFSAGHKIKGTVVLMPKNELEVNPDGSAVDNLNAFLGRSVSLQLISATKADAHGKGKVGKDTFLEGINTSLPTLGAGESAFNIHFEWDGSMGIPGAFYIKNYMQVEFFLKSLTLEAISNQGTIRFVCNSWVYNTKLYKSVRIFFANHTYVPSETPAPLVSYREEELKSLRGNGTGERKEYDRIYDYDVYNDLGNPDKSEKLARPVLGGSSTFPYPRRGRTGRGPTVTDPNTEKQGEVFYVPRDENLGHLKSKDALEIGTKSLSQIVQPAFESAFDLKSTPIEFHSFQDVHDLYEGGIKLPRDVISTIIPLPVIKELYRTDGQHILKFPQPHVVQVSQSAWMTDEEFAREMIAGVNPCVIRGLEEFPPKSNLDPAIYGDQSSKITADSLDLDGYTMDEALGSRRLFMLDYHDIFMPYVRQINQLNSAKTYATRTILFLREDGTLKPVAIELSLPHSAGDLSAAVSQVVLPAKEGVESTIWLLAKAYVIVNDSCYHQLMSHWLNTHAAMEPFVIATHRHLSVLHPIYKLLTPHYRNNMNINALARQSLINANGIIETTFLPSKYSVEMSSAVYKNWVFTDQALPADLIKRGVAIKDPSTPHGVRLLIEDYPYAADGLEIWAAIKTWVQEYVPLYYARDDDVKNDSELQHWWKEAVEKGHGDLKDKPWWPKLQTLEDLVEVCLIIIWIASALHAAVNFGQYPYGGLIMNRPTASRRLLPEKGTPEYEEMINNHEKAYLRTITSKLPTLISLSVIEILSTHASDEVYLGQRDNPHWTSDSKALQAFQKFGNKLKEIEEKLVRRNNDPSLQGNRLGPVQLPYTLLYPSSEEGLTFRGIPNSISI
Briefly: LOX inhibition study in vitro. The format is biochemical. The following applies: values in parentheses in Table 3. The method, then:
LOX inhibitory assay in vitro was accomplished as described previously. The test compounds (stock solutions 10 mM in DMSO) were incubated at room temperature with sodium linoleate (c = 0.1 mM) and 0.2 mL of LOX enzyme solution (1/9 × 10^−4 m/V in saline). The conversion of sodium linoleate to 13-hydroperoxylinoleic acid was measured at 234 nm and compared with the reference inhibitor. Several concentrations were used for the IC50 determination.

The next data set concerns HEL cells. In words: Cytotoxicity assay, alteration of HEL cell morphology (MCC). Conditions: 3 days. It is filed as cell-based, human. The method, then: Cytotoxicity measurements were based on the inhibition of HEL cell growth. Cells were seeded at 5 × 10^3 cells/well into 96-well microtiter plates. Then, medium containing different concentrations of the test compounds was added. After 3 days of incubation at 37 °C, the alteration of morphology of the cell cultures was recorded light microscopically. Cytotoxicity was expressed as MCC.

In the case of `CNC(=O)c1cc(Oc2ccc(NC(=O)Nc3ccc(Cl)c(C(F)(F)F)c3)cc2)ccn1` [SOR, sorafenib, reference compound], the IC50 in data set [1] is 3.9 ± 1.6 µM; with lung adenocarcinoma A549 it was 6.1 ± 0.6 µM; in data set [2] it was 3.2 ± 1.7 µM; in [3], 4.2 ± 2.4 µM; in data set [4] it was 7.1 ± 1.9 µM; in data set [5] it was 7.1 ± 2.6 µM.

For the molecule `COc1cc(NC(C)CCCNC(=O)NNC(=O)/C=C/c2ccc(Cl)cc2)c2ncccc2c1` (centres unmarked) [7g, (E)-1-(3-(4-Chlorophenyl)acryloyl)-4-(4-(6-methoxyquinolin-8-ylamino)pentyl)semicarbazide], the “DPPH-reducing ability RA (%)” value amounted to 100% in data set [6] (1 × 10^−4 M, 20 min); 100% in data set [6] (1 × 10^−4 M, 60 min); 66% in data set [6] (5 × 10^−5 M, 20 min); 100% in data set [6] (5 × 10^−5 M, 60 min). Further, the concentration for half-maximal inhibition (IC50) in data set [7] came to 20 ± 0.7 µM; in data set [1], 0.2 ± 0.2 µM; in data set [2], 0.9 ± 0.7 µM; in data set [3] it was 1.6 ± 0.7 µM; in data set [4], 21 ± 4 µM; in data set [5], 2.7 ± 1.2 µM. In addition, the IC50 in data set [9] was 70 µM. In data set [8], the “LP Inhibition (%)” value was found to be 89%. In addition, the “MCC (minimum cytotoxic concentration)” value in the data set on HEL cells was “around 20 μΜ”.

Consider `COc1ccc(/C=C/C(=O)NNC(=O)NCCCC(C)Nc2cc(OC)cc3cccnc23)cc1` (centres unmarked) [7c, (E)-1-(3-(4-Methoxyphenyl)acryloyl)-4-(4-(6-methoxyquinolin-8-ylamino)pentyl)semicarbazide], for which the “DPPH-reducing ability RA (%)” value in data set [6] (1 × 10^−4 M, 20 min) was 39%; in data set [6] (1 × 10^−4 M, 60 min), 100%; in [6] (5 × 10^−5 M, 20 min), 54%; in data set [6] (5 × 10^−5 M, 60 min), 100%. In addition, the IC50 in data set [7] was > 100 µM; in [1] it was 0.4 ± 0.2 µM; in data set [2], 1.3 ± 0.7 µM; in data set [3], 1.7 ± 0.4 µM; in data set [4], > 100 µM; in data set [5] it was 2.4 ± 0.2 µM. For the same molecule, the half-maximal inhibitory concentration (IC50) in [9] came out at 50 µM. Moreover, the “LP Inhibition (%)” value in [8] stood at 89%. In addition, the “MCC (minimum cytotoxic concentration)” value with HEL cells was “around 20 μΜ”.

These data come from publication PMC6273687, “Design, Synthesis and Biological Evaluation of Novel Primaquine-Cinnamic Acid Conjugates of the Amide and Acylsemicarbazide Type” (Molecules, 2016).
